Test results as given in patent US20060069132A1, “Azolecarboxamide herbicides” (priority 2004, published 2006).
Read-outs that look alike come from different tables or passages of the source.

Assays:
[1] = system: giant foxtail; experiment: Test B pre-/postemergence herbicide test; type: in vivo, Setaria faberi; conditions: Setaria faberi, 336 h; for pest or weed control at 125 g/ha: 125 g ai/ha; for pest or weed control at 500 g/ha: 500 g ai/ha
Procedure, shortened: (§1)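 Flooded paddy rice and barnyardgrass were treated at the 2-leaf stage; upland plantings received compound either on sown seed or on 1- to 4-leaf seedlings. All were kept 13–15 days in a greenhouse and scored visually, 0–100, relative to untreated plants.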

[2] = system: rice; experiment: Test B flooded paddy test; type: in vivo, Oryza sativa; conditions: Oryza sativa, 336 h, 1000 g ai/ha, scale 0 to 100 (0 no effect, 100 complete control), read-out: Rice plant response rating
Procedure, shortened: (§2)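 After treating 2-leaf paddy plants or 2–18 cm postemergence plants (1 to 4 leaves) with formulated chemical, researchers kept them in a greenhouse for 13–15 days. Effects were judged visually versus controls: 0 indicates none, 100 total control.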

[3] = system: cocklebur; experiment: Test B pre-/postemergence herbicide test; type: in vivo, Xanthium strumarium; conditions: Xanthium strumarium; for pest or weed control at 125 g/ha: 125 g ai/ha; for pest or weed control at 500 g/ha: 500 g ai/ha
Procedure, shortened: as §1

[4] = system: lambsquarters; experiment: Test B pre-/postemergence herbicide test; type: in vivo, Chenopodium album; conditions: Chenopodium album, 336 h; for pest or weed control at 125 g/ha: 125 g ai/ha; for pest or weed control at 500 g/ha: 500 g ai/ha
Procedure, shortened: as §1

[5] = system: wild oat; experiment: Test B postemergence herbicide test; type: in vivo, Avena fatua; conditions: Avena fatua, post-emergence, 336 h, postemergence, read-out: Oat, Wild plant response rating
Procedure, shortened: as §2

[6] = system: velvetleaf; experiment: Test B pre-/postemergence herbicide test; type: in vivo, Abutilon theophrasti; conditions: Abutilon theophrasti, 336 h; for pest or weed control at 125 g/ha: 125 g ai/ha; for pest or weed control at 500 g/ha: 500 g ai/ha
Procedure, shortened: as §1

[7] = system: Surinam grass; experiment: Test B pre-/postemergence herbicide test; type: in vivo, Urochloa decumbens; conditions: Urochloa decumbens; for pest or weed control at 125 g/ha: 125 g ai/ha; for pest or weed control at 500 g/ha: 500 g ai/ha
Procedure, shortened: as §1

[8] = system: wheat; experiment: Test B postemergence herbicide test; type: in vivo, Triticum aestivum; conditions: Triticum aestivum, post-emergence, 336 h, postemergence, read-out: Wheat plant response rating
Procedure, shortened: as §2

[9] = system: corn; experiment: Test B pre-/postemergence herbicide test; type: in vivo, Zea mays; conditions: Zea mays; for plant injury at 125 g/ha: 125 g ai/ha
Procedure, shortened: as §1

[10] = system: barnyardgrass; experiment: Test B flooded paddy test; type: in vivo, Echinochloa crus-galli; conditions: Echinochloa crus-galli, 336 h, 1000 g ai/ha, scale 0 to 100 (0 no effect, 100 complete control), read-out: Barnyardgrass plant response rating
Procedure, shortened: as §2

[11] = system: barnyardgrass; experiment: Test B pre-/postemergence herbicide test; type: in vivo, Echinochloa crus-galli; conditions: Echinochloa crus-galli; for pest or weed control at 125 g/ha: 125 g ai/ha; for pest or weed control at 500 g/ha: 500 g ai/ha
Procedure, shortened: as §1

[12] = system: morningglory; experiment: Test B pre-/postemergence herbicide test; type: in vivo, Ipomoea coccinea; conditions: Ipomoea, 336 h; for pest or weed control at 125 g/ha: 125 g ai/ha; for pest or weed control at 500 g/ha: 500 g ai/ha
Procedure, shortened: as §1

[13] = system: small flower umbrella sedge; experiment: Test B flooded paddy test; type: in vivo, Cyperus difformis; conditions: Cyperus difformis, 336 h, 1000 g ai/ha, scale 0 to 100 (0 no effect, 100 complete control), read-out: Sedge, Umbrella plant response rating
Procedure, shortened: as §2

[14] = system: pigweed; experiment: Test B pre-/postemergence herbicide test; type: in vivo, Amaranthus retroflexus; conditions: Amaranthus retroflexus, 336 h; for pest or weed control at 125 g/ha: 125 g ai/ha; for pest or weed control at 500 g/ha: 500 g ai/ha
Procedure, shortened: as §1

[15] = system: large crabgrass; experiment: Test B pre-/postemergence herbicide test; type: in vivo, Digitaria sanguinalis; conditions: Digitaria sanguinalis; for pest or weed control at 125 g/ha: 125 g ai/ha; for pest or weed control at 500 g/ha: 500 g ai/ha
Procedure, shortened: as §1

[16] = 125 g ai/ha, visual rating, scale 0 (no effect) to 100 (complete control)
[17] = 500 g ai/ha, scale 0 to 100, 0 is no effect, 100 is complete control

Question: With `CCn1nc(C(C)(C)C)c(F)c1C(=O)Nc1cc(C(=O)N(C)C)ccc1F` [Compound 276, N-[5-[(dimethylamino)carbonyl]-2-fluorophenyl]-3-(1,1-dimethylethyl)-1-ethyl-4-fluoro-1H-pyrazole-5-carboxamide] as the compound, how does the pest or weed control at 125 g/ha ([1]; post-emergence, postemergence, visual rating, scale 0 (no effect) to 100 (complete control), read-out: Foxtail, Giant plant response rating) read?
Answer: 10%

Question: What about the pest or weed control at 500 g/ha ([1]; post-emergence, postemergence, scale 0 to 100, 0 is no effect, 100 is complete control, read-out: Foxtail, Giant plant response rating) of the same compound?
Answer: 40%

Question: And the pest or weed control at 125 g/ha ([1]; pre-emergence, 0 = no effect, 100 = complete control, read-out: Foxtail, Giant plant response rating (0 to 100 scale))?
Answer: 30%

Question: And the pest or weed control at 500 g/ha ([1]; pre-emergence, visual rating, 0 = no effect, 100 = complete control, read-out: Plant response rating, Foxtail, Giant)?
Answer: 90%

Question: What about the plant injury at 1000 g/ha [2] of the same compound?
Answer: 70%

Question: And the pest or weed control at 125 g/ha ([3]; post-emergence, postemergence, visual rating, scale 0 (no effect) to 100 (complete control), read-out: Cocklebur plant response rating)?
Answer: 10%

Question: What about the pest or weed control at 500 g/ha ([3]; post-emergence, postemergence, scale 0 to 100, 0 is no effect, 100 is complete control, read-out: Cocklebur plant response rating) of the same compound?
Answer: 10%

Question: And the pest or weed control at 125 g/ha ([3]; pre-emergence, 0 = no effect, 100 = complete control, read-out: Cocklebur plant response rating (0 to 100 scale))?
Answer: 0%

Question: And the pest or weed control at 500 g/ha ([3]; pre-emergence, visual rating, 0 = no effect, 100 = complete control, read-out: Plant response rating, Cocklebur)?
Answer: 30%

Question: What about the pest or weed control at 125 g/ha ([4]; post-emergence, postemergence, visual rating, scale 0 (no effect) to 100 (complete control), read-out: Lambsquarters plant response rating) of the same compound?
Answer: 20%

Question: And the pest or weed control at 500 g/ha ([4]; post-emergence, postemergence, scale 0 to 100, 0 is no effect, 100 is complete control, read-out: Lambsquarters plant response rating)?
Answer: 60%

Question: What about the pest or weed control at 125 g/ha ([4]; pre-emergence, 0 = no effect, 100 = complete control, read-out: Lambsquarters plant response rating (0 to 100 scale)) of the same compound?
Answer: 40%

Question: And the pest or weed control at 500 g/ha ([4]; pre-emergence, visual rating, 0 = no effect, 100 = complete control, read-out: Plant response rating, Lambsquarters)?
Answer: 100%

Question: And the pest or weed control at 125 g/ha [5, 16]?
Answer: 30%

Question: What about the pest or weed control at 500 g/ha [5, 17] of the same compound?
Answer: 40%

Question: And the pest or weed control at 125 g/ha ([6]; post-emergence, postemergence, visual rating, scale 0 (no effect) to 100 (complete control), read-out: Velvetleaf plant response rating)?
Answer: 10%

Question: And the pest or weed control at 500 g/ha ([6]; post-emergence, postemergence, scale 0 to 100, 0 is no effect, 100 is complete control, read-out: Velvetleaf plant response rating)?
Answer: 40%

Question: And the pest or weed control at 125 g/ha ([6]; pre-emergence, 0 = no effect, 100 = complete control, read-out: Velvetleaf plant response rating (0 to 100 scale))?
Answer: 0%

Question: What about the pest or weed control at 500 g/ha ([6]; pre-emergence, visual rating, 0 = no effect, 100 = complete control, read-out: Plant response rating, Velvetleaf) of the same compound?
Answer: 50%

Question: And the pest or weed control at 125 g/ha ([7]; post-emergence, postemergence, visual rating, scale 0 (no effect) to 100 (complete control), read-out: Surinam Grass plant response rating)?
Answer: 10%

Question: What about the pest or weed control at 500 g/ha ([7]; post-emergence, postemergence, scale 0 to 100, 0 is no effect, 100 is complete control, read-out: Surinam Grass plant response rating) of the same compound?
Answer: 20%

Question: And the pest or weed control at 125 g/ha ([7]; pre-emergence, 0 = no effect, 100 = complete control, read-out: Surinam Grass plant response rating (0 to 100 scale))?
Answer: 10%

Question: And the pest or weed control at 500 g/ha ([7]; pre-emergence, visual rating, 0 = no effect, 100 = complete control, read-out: Plant response rating, Surinam Grass)?
Answer: 60%

Question: And the plant injury at 125 g/ha [8, 16]?
Answer: 20%

Question: What about the plant injury at 500 g/ha [8, 17] of the same compound?
Answer: 30%

Question: And the plant injury at 125 g/ha ([9]; post-emergence, postemergence, visual rating, scale 0 (no effect) to 100 (complete control), read-out: Corn plant response rating)?
Answer: 0%

Question: What about the plant injury at 500 g/ha ([9]; post-emergence, postemergence, 500 g ai/ha, scale 0 to 100, 0 is no effect, 100 is complete control, read-out: Corn plant response rating) of the same compound?
Answer: 20%

Question: And the plant injury at 125 g/ha ([9]; pre-emergence, 0 = no effect, 100 = complete control, read-out: Corn plant response rating (0 to 100 scale))?
Answer: 20%

Question: And the Corn plant response rating (crop injury, 0 = no effect, 100 = complete kill) at 500 g/ha ([9]; pre-emergence, 500 g ai/ha, visual rating, 0 = no effect, 100 = complete control)?
Answer: 60%

Question: What about the pest or weed control at 1000 g/ha [10] of the same compound?
Answer: 70%

Question: And the pest or weed control at 125 g/ha ([11]; post-emergence, postemergence, visual rating, scale 0 (no effect) to 100 (complete control), read-out: Barnyardgrass plant response rating)?
Answer: 0%

Question: What about the pest or weed control at 500 g/ha ([11]; post-emergence, postemergence, scale 0 to 100, 0 is no effect, 100 is complete control, read-out: Barnyardgrass plant response rating) of the same compound?
Answer: 10%

Question: And the pest or weed control at 125 g/ha ([11]; pre-emergence, 0 = no effect, 100 = complete control, read-out: Barnyardgrass plant response rating (0 to 100 scale))?
Answer: 60%

Question: What about the pest or weed control at 500 g/ha ([11]; pre-emergence, visual rating, 0 = no effect, 100 = complete control, read-out: Plant response rating, Barnyardgrass) of the same compound?
Answer: 80%

Question: And the pest or weed control at 125 g/ha ([12]; post-emergence, postemergence, visual rating, scale 0 (no effect) to 100 (complete control), read-out: Morningglory plant response rating)?
Answer: 10%

Question: What about the pest or weed control at 500 g/ha ([12]; post-emergence, postemergence, scale 0 to 100, 0 is no effect, 100 is complete control, read-out: Morningglory plant response rating) of the same compound?
Answer: 30%

Question: And the pest or weed control at 125 g/ha ([12]; pre-emergence, 0 = no effect, 100 = complete control, read-out: Morningglory plant response rating (0 to 100 scale))?
Answer: 0%

Question: What about the pest or weed control at 500 g/ha ([12]; pre-emergence, visual rating, 0 = no effect, 100 = complete control, read-out: Plant response rating, Morningglory) of the same compound?
Answer: 10%

Question: What about the pest or weed control at 1000 g/ha [13] of the same compound?
Answer: 80%

Question: And the pest or weed control at 125 g/ha ([14]; post-emergence, postemergence, visual rating, scale 0 (no effect) to 100 (complete control), read-out: Pigweed plant response rating)?
Answer: 40%

Question: And the pest or weed control at 500 g/ha ([14]; post-emergence, postemergence, scale 0 to 100, 0 is no effect, 100 is complete control, read-out: Pigweed plant response rating)?
Answer: 70%

Question: What about the pest or weed control at 125 g/ha ([14]; pre-emergence, 0 = no effect, 100 = complete control, read-out: Pigweed plant response rating (0 to 100 scale)) of the same compound?
Answer: 30%

Question: What about the pest or weed control at 500 g/ha ([14]; pre-emergence, visual rating, 0 = no effect, 100 = complete control, read-out: Plant response rating, Pigweed) of the same compound?
Answer: 100%

Question: What about the pest or weed control at 125 g/ha ([15]; post-emergence, postemergence, visual rating, scale 0 (no effect) to 100 (complete control), read-out: Crabgrass, Large plant response rating) of the same compound?
Answer: 10%

Question: What about the pest or weed control at 500 g/ha ([15]; post-emergence, postemergence, scale 0 to 100, 0 is no effect, 100 is complete control, read-out: Crabgrass, Large plant response rating) of the same compound?
Answer: 20%

Question: And the pest or weed control at 125 g/ha ([15]; pre-emergence, 0 = no effect, 100 = complete control, read-out: Crabgrass, Large plant response rating (0 to 100 scale))?
Answer: 10%

Question: And the pest or weed control at 500 g/ha ([15]; pre-emergence, visual rating, 0 = no effect, 100 = complete control, read-out: Plant response rating, Crabgrass, Large)?
Answer: 70%
